Laboratory results reported in ChEMBL document CHEMBL1909511, “Inhalation by design: novel tertiary amine muscarinic M₃ receptor antagonists with slow off-rate binding kinetics for inhaled once-daily treatment of chronic obstructive pulmonary disease” (J Med Chem, 2011).

How the values were obtained:
[1] = molecular target: T1, Muscarinic acetylcholine receptor M4 (Homo sapiens, UniProt P08173); test: Displacement of [3H]-NMS from human recombinant M4 receptor expressed in CHO cells after 24 hrs by filter binding assay; assay type: cell-based
T1 sequence (P08173 whole entry): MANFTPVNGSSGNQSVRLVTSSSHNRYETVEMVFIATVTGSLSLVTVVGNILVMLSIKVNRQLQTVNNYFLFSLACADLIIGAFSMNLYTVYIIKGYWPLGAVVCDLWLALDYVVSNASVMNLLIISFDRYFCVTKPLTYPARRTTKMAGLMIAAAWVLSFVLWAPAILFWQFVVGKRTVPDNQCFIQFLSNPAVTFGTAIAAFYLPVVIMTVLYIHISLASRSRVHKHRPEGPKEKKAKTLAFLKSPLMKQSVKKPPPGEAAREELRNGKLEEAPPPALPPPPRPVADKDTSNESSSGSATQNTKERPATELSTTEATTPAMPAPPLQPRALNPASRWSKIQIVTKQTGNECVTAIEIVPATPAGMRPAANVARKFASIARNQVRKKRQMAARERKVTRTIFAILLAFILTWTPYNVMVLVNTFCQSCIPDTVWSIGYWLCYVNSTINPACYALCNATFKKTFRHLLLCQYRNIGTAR

[2] = molecular target: Muscarinic acetylcholine receptor M3 (Cavia porcellus) (UniProt Q8VH26); test: Antagonist activity at M3 receptor in Dunkin-Hartley guinea pig tracheal strips assessed as time taken for electrically field-stimulated contractile response to recover by 25 percent of inhibition at Emax after 2 hrs; assay type: functional
Sequence of Muscarinic acetylcholine receptor M3 (Cavia porcellus) (Q8VH26 1-587): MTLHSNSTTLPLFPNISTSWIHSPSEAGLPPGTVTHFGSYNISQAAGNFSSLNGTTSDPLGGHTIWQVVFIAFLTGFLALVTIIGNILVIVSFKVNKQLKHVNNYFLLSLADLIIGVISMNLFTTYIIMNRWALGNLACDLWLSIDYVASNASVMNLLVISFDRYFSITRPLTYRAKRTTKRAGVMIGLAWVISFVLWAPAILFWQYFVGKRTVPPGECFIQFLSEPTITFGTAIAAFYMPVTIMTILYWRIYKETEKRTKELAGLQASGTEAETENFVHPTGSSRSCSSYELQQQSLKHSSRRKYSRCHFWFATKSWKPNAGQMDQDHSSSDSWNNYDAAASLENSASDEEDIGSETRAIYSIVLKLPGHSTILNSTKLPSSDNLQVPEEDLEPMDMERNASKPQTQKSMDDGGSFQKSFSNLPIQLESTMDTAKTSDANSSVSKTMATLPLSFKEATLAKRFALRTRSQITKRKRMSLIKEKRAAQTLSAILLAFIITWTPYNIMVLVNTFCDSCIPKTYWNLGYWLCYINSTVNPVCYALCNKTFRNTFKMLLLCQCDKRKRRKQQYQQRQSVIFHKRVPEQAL

[3] = molecular target: T2, Muscarinic acetylcholine receptor M3 (Homo sapiens, UniProt P20309)
T2 sequence (P20309 whole entry, looked up): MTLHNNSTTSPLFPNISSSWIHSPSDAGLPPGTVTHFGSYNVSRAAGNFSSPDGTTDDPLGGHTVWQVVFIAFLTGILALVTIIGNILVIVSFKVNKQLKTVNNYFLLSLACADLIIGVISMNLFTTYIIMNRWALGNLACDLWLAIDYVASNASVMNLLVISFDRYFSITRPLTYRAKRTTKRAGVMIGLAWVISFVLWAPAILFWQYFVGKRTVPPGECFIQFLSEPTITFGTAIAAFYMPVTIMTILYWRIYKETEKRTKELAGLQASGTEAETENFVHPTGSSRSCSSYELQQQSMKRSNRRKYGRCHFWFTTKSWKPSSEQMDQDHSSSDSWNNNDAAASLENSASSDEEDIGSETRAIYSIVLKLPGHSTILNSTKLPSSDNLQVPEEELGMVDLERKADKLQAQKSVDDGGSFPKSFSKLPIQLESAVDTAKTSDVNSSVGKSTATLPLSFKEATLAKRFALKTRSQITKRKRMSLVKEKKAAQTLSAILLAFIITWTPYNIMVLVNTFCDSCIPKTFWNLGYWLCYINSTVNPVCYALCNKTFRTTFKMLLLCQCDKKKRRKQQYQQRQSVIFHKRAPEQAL

[4] = Half life in iv dosed rat; assay type: ADME, organism-based; conditions: in vivo
[5] = Plasma protein binding in iv dosed rat; assay type: ADME, organism-based; conditions: read-out: PPB (converted)
[6] = molecular target: T2, Muscarinic acetylcholine receptor M3; conditions: CHO
[7] = molecular target: T3, Muscarinic acetylcholine receptor M1 (Homo sapiens) (UniProt P11229); test: Displacement of [3H]-NMS from human recombinant M1 receptor expressed in CHO cells assessed as dissociation half life at 100 fold human M1 receptor binding Ki concentration after 24 hrs by dilution-offset filter binding assay; assay type: cell-based
T3 sequence (whole entry): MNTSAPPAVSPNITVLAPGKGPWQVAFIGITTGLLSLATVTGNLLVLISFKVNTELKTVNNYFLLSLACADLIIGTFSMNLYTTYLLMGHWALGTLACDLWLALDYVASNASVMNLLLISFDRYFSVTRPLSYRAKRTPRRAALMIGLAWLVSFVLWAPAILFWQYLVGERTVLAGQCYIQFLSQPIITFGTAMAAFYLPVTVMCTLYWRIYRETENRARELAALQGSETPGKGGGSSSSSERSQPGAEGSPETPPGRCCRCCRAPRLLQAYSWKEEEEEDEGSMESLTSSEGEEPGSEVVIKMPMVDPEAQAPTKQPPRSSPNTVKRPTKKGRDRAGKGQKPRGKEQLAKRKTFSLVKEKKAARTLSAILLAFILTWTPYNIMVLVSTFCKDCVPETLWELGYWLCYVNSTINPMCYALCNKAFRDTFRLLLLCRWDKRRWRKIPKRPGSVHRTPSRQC

[8] = Volume of distribution at steady state in iv dosed rat; assay type: ADME, organism-based; conditions: in vivo, read-out: Vdss
[9] = molecular target: T4, Muscarinic acetylcholine receptor M2 (Homo sapiens) (UniProt P08172); test: Displacement of [3H]-NMS from human recombinant M2 receptor expressed in CHO cells assessed as dissociation half life at 100 fold human M2 receptor binding Ki concentration after 24 hrs by dilution-offset filter binding assay; assay type: cell-based
T4 sequence (whole entry): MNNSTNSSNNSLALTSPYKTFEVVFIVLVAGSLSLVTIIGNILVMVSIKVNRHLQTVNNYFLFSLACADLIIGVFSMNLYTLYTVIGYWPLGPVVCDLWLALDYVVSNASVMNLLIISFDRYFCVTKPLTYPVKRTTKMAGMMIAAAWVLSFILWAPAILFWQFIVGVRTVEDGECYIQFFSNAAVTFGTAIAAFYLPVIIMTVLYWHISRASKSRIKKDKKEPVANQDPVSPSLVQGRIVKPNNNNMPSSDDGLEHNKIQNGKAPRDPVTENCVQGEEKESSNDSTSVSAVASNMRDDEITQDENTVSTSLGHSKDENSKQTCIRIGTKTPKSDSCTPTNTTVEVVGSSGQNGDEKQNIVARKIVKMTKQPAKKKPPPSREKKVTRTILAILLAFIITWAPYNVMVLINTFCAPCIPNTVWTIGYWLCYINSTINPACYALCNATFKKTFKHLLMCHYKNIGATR

[10] = molecular target: T5, Muscarinic acetylcholine receptor M4 (Homo sapiens) (UniProt P08173); test: Displacement of [3H]-NMS from human recombinant M4 receptor expressed in CHO cells assessed as dissociation half life at 100 fold human M4 receptor binding Ki concentration after 24 hrs by dilution-offset filter binding assay; assay type: cell-based
T5 sequence (whole entry): T1 sequence (P08173 whole entry)

[11] = molecular target: T6, Muscarinic acetylcholine receptor M2 (Homo sapiens, UniProt P08172); test: Displacement of [3H]-NMS from human recombinant M2 receptor expressed in CHO cells after 24 hrs by filter binding assay; assay type: cell-based
T6 sequence (P08172 whole entry): T4 sequence (whole entry)

[12] = molecular target: T7, Muscarinic acetylcholine receptor M1 (Homo sapiens, UniProt P11229); test: Displacement of [3H]-NMS from human recombinant M1 receptor expressed in CHO cells after 24 hrs by filter binding assay; assay type: cell-based
T7 sequence (P11229 whole entry): T3 sequence (whole entry)

[13] = Intrinsic clearance in human liver microsomes assessed per mg of protein in presence of NADPH
Canis familiaris = test: Bronchodilator activity in methacholine challenged Beagle dog assessed as intrinsic duration of action at 3 ug intratracheally administered as single dose in micelle solution; assay type: functional, Canis lupus familiaris
[14] = molecular target: T8, Muscarinic acetylcholine receptor M5 (Homo sapiens, UniProt P08912); test: Displacement of [3H]-NMS from human recombinant M5 receptor expressed in CHO cells after 24 hrs by filter binding assay; assay type: cell-based
T8 sequence (P08912 whole entry): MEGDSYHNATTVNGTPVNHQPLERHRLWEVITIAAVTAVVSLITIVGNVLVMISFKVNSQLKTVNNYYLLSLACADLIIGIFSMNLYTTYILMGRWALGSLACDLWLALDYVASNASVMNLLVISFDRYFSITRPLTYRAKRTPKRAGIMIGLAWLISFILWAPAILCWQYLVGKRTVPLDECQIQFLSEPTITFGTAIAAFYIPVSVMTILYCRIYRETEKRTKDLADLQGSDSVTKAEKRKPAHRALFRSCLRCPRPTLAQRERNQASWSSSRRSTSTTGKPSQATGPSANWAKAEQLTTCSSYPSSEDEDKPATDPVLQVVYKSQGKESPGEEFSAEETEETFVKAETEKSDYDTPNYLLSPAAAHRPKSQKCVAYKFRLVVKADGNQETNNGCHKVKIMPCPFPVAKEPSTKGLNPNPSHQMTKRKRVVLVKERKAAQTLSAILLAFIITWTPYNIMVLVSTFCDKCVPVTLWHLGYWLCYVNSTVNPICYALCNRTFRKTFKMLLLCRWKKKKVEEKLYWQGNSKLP

[15] = molecular target: T2, Muscarinic acetylcholine receptor M3; conditions: CHO; remark: listed apart in the source

`CC(C)(CCC(C(N)=O)(c1ccccc1)c1ccccc1)N1CC(Oc2cccc(O)c2)C1` [PF-03635659] showed a Ki [1] of 0.115 nM, a TIME [2] of over 16 h and a pKb [3] of 9.6. The half-life [4] was 0.9 h, the fraction unbound [5] was 0.065 and the T1/2 [6] was over 24 h. It also gave a T1/2 [7] of 14 h, a Vd [8] of 8.4 L/kg and a T1/2 [9] of 4.38 h. It also gave a T1/2 [10] of 9.78 h, a Ki [11] of 0.137 nM and a Ki [12] of 0.115 nM. For the same molecule, the microsomal CLint [13] was over 282 µL/min/mg, the Time (Canis familiaris) was over 24 h and the Ki [14] was 0.169 nM. For the same molecule, the T1/2 [15] was over 24 h.
